Values of other authors, collected in patent US20020177624A1, “Acetate-lactate buffering vaginal gel and for method of making same and treating bacterial vaginosis” (priority 2001, published 2002).

System: bacterial vaginosis
Conditions: oral administration

In the case of `Cc1ncc([N+](=O)[O-])n1CCO` [metronidazole], the “success of treatment of bacterial vaginosis” value is given as “often highly successful”.
